The NIST ThermoML archive (doi:10.1021/je049918m)
“And” between values parts separate entries of the source, which are not always exact repeats. Identical values can stand only once. ± gives the expanded uncertainty stated by the source.

Conditions: Liquid, Falling or rolling sphere viscometry

O [water]
Conditions | viscosity
255.65 K, 177500 kPa | 2.945 ± 0.038 mPa·s
255.65 K, 190300 kPa | 2.955 ± 0.038 mPa·s
255.65 K, 196700 kPa | 2.959 ± 0.038 mPa·s
255.65 K, 201800 kPa | 2.964 ± 0.038 mPa·s
255.65 K, 231800 kPa | 3.003 ± 0.038 mPa·s
255.65 K, 257800 kPa | 3.056 ± 0.039 mPa·s
255.65 K, 292300 kPa | 3.135 ± 0.04 mPa·s
255.65 K, 321100 kPa | 3.217 ± 0.041 mPa·s
258.15 K, 159300 kPa | 2.678 ± 0.034 mPa·s
258.15 K, 188400 kPa | 2.69 ± 0.034 mPa·s
258.15 K, 205200 kPa | 2.708 ± 0.035 mPa·s
258.15 K, 209200 kPa | 2.71 ± 0.035 mPa·s
258.15 K, 239800 kPa | 2.754 ± 0.035 mPa·s
258.15 K, 282600 kPa | 2.834 ± 0.036 mPa·s
258.15 K, 309000 kPa | 2.898 ± 0.037 mPa·s
258.15 K, 323500 kPa | 2.934 ± 0.038 mPa·s
258.15 K, 333200 kPa | 2.957 ± 0.038 mPa·s
258.15 K, 354100 kPa | 3.019 ± 0.039 mPa·s
258.15 K, 361000 kPa | 3.033 ± 0.039 mPa·s
263.15 K, 112000 kPa | 2.258 ± 0.029 mPa·s
263.15 K, 112100 kPa | 2.258 ± 0.029 mPa·s
263.15 K, 128600 kPa | 2.247 ± 0.029 mPa·s
263.15 K, 150800 kPa | 2.244 ± 0.029 mPa·s
263.15 K, 180700 kPa | 2.256 ± 0.029 mPa·s
263.15 K, 209900 kPa | 2.281 ± 0.029 mPa·s
263.15 K, 240100 kPa | 2.315 ± 0.03 mPa·s
263.15 K, 270500 kPa | 2.357 ± 0.03 mPa·s
263.15 K, 302000 kPa | 2.415 ± 0.031 mPa·s
263.15 K, 335400 kPa | 2.481 ± 0.032 mPa·s
263.15 K, 386400 kPa | 2.605 ± 0.033 mPa·s
268.15 K, 61100 kPa | 1.969 ± 0.025 mPa·s
268.15 K, 80800 kPa | 1.942 ± 0.025 mPa·s
268.15 K, 98000 kPa | 1.927 ± 0.025 mPa·s
268.15 K, 100200 kPa | 1.926 ± 0.025 mPa·s
268.15 K, 124200 kPa | 1.914 ± 0.025 mPa·s
268.15 K, 151100 kPa | 1.913 ± 0.025 mPa·s
268.15 K, 177500 kPa | 1.924 ± 0.025 mPa·s
268.15 K, 213300 kPa | 1.949 ± 0.025 mPa·s
268.15 K, 245400 kPa | 1.982 ± 0.025 mPa·s
268.15 K, 295300 kPa | 2.047 ± 0.026 mPa·s
268.15 K, 350800 kPa | 2.138 ± 0.027 mPa·s
268.15 K, 376700 kPa | 2.19 ± 0.028 mPa·s
268.15 K, 387900 kPa | 2.212 ± 0.028 mPa·s
273.15 K, 100 kPa | 1.799 ± 0.023 mPa·s and 1.802 ± 0.023 mPa·s
273.15 K, 30700 kPa | 1.722 ± 0.022 mPa·s
273.15 K, 60400 kPa | 1.678 ± 0.022 mPa·s
273.15 K, 90700 kPa | 1.653 ± 0.021 mPa·s
273.15 K, 120600 kPa | 1.644 ± 0.021 mPa·s
273.15 K, 150300 kPa | 1.649 ± 0.021 mPa·s
273.15 K, 180000 kPa | 1.659 ± 0.021 mPa·s
273.15 K, 209600 kPa | 1.678 ± 0.022 mPa·s
273.15 K, 240300 kPa | 1.704 ± 0.022 mPa·s
273.15 K, 270400 kPa | 1.735 ± 0.022 mPa·s
273.15 K, 300400 kPa | 1.771 ± 0.023 mPa·s
273.15 K, 330300 kPa | 1.81 ± 0.023 mPa·s
273.15 K, 359500 kPa | 1.852 ± 0.024 mPa·s
273.15 K, 386700 kPa | 1.893 ± 0.024 mPa·s
278.15 K, 100 kPa | 1.528 ± 0.021 mPa·s
278.15 K, 600 kPa | 1.527 ± 0.02 mPa·s
278.15 K, 30700 kPa | 1.481 ± 0.019 mPa·s
278.15 K, 60700 kPa | 1.454 ± 0.019 mPa·s
278.15 K, 90500 kPa | 1.44 ± 0.018 mPa·s
278.15 K, 120300 kPa | 1.439 ± 0.018 mPa·s
278.15 K, 150800 kPa | 1.444 ± 0.019 mPa·s
278.15 K, 180700 kPa | 1.456 ± 0.019 mPa·s
278.15 K, 210700 kPa | 1.476 ± 0.019 mPa·s
278.15 K, 240400 kPa | 1.498 ± 0.019 mPa·s
278.15 K, 270400 kPa | 1.522 ± 0.02 mPa·s
278.15 K, 300600 kPa | 1.555 ± 0.02 mPa·s
278.15 K, 330300 kPa | 1.591 ± 0.02 mPa·s
278.15 K, 360000 kPa | 1.631 ± 0.021 mPa·s
278.15 K, 389000 kPa | 1.672 ± 0.021 mPa·s
283.15 K, 100 kPa | 1.313 ± 0.025 mPa·s and 1.31 ± 0.025 mPa·s
283.15 K, 500 kPa | 1.31 ± 0.023 mPa·s
283.15 K, 30700 kPa | 1.28 ± 0.016 mPa·s
283.15 K, 60700 kPa | 1.264 ± 0.016 mPa·s
283.15 K, 90700 kPa | 1.257 ± 0.016 mPa·s
283.15 K, 120800 kPa | 1.257 ± 0.016 mPa·s
283.15 K, 150800 kPa | 1.263 ± 0.016 mPa·s
283.15 K, 180800 kPa | 1.275 ± 0.016 mPa·s
283.15 K, 210200 kPa | 1.293 ± 0.017 mPa·s
283.15 K, 240600 kPa | 1.314 ± 0.017 mPa·s
283.15 K, 270700 kPa | 1.337 ± 0.017 mPa·s
283.15 K, 300200 kPa | 1.362 ± 0.017 mPa·s
283.15 K, 330000 kPa | 1.39 ± 0.018 mPa·s
283.15 K, 359200 kPa | 1.42 ± 0.018 mPa·s
283.15 K, 385200 kPa | 1.45 ± 0.019 mPa·s
298.15 K, 100 kPa | 0.892 ± 0.011 mPa·s and 0.893 ± 0.011 mPa·s
298.15 K, 31000 kPa | 0.888 ± 0.011 mPa·s
298.15 K, 61000 kPa | 0.888 ± 0.011 mPa·s
298.15 K, 90900 kPa | 0.891 ± 0.011 mPa·s
298.15 K, 120700 kPa | 0.898 ± 0.012 mPa·s
298.15 K, 150600 kPa | 0.907 ± 0.012 mPa·s
298.15 K, 180600 kPa | 0.919 ± 0.012 mPa·s
298.15 K, 210600 kPa | 0.933 ± 0.012 mPa·s
298.15 K, 240600 kPa | 0.948 ± 0.012 mPa·s
298.15 K, 270100 kPa | 0.965 ± 0.012 mPa·s
298.15 K, 299700 kPa | 0.983 ± 0.013 mPa·s
298.15 K, 329200 kPa | 1.002 ± 0.013 mPa·s
298.15 K, 358500 kPa | 1.022 ± 0.013 mPa·s
298.15 K, 384300 kPa | 1.042 ± 0.013 mPa·s
